Data set [1] deals with human serotonin transporter (Homo sapiens (Human), UniProt P31645). As to the kind of experiment: hSERT binding assay ([3H]Imipramine).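 On all read-outs here: displacement of radiolabeled imipramine from the transporter, incubated 30 min at 27 °C in Tris-HCl pH 7.4 with NaCl and KCl, bound radioactivity counted after filtration, nonspecific binding defined with 200 uM imipramine.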 To be noted: for inhibition at 10 µM: read-out: hSERT binding assay %-inhibition (10 uM).
Data set [2] has as its target human norepinephrine transporter (Homo sapiens (Human), UniProt P23975). As to the kind of experiment: hNET binding assay ([3H]Nisoxetine). The settings on record: for inhibition at 10 µM: read-out: hNET binding assay %-inhibition (10 uM). On the procedure: NE transporter binding assay for evaluating binding of the compound to the norepinephrine transporter was carried out using human recombinant norepinephrine transporter membrane (PerkinElmer Life and Analytical Sciences, USA) expressed in MDCK cells and radioisotope [^3H]Nisoxetine (PerkinElmer).
That is, the test drug, 6 nM [^3H]Nisoxetine, norepinephrine transporter membrane (11 ug/well), 120 mM NaCl and 50 mM Tris-HCl buffer (pH 7.4) containing 5 mM KCl were added to obtain a reaction mixture with a final volume of 0.25 ml. After incubation for 60 minutes at 4° C., the mixture was quickly passed through a Filtermat A glass fiber filter pre-soaked with 0.5% (w/v) PEI (polyethyleneimine) using Inotech Harvester (Inotech) to terminate the reaction. After washing with cold washing buffer (50 mM Tris-HCl, pH 7.4, 0.9% NaCl) solution, the filter was covered with MeltiLex and sealed in a sample bag. After drying in an oven, radioactivity was counted using MicroBeta Plus (Wallac).
Non-specific binding was measured in the presence of 1 uM desipramine. The IC50 value of the test drug was calculated from non-linear regression analysis (GraphPad Prism Program, San Diego, USA) of each %-inhibition value obtained from the drug with concentrations of 7th and 8th steps.

Data set [3] addresses human dopamine transporter (Homo sapiens (Human), UniProt Q01959). Kind of data set: hDAT binding assay ([3H]WIN35,428).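 On all read-outs here: displacement of the radioligand from the transporter membranes, incubated 120 min at 4 °C in Tris-HCl buffer with NaCl, pH 7.4, measured by filter-bound radioactivity counting.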 To be noted: for inhibition at 10 µM: read-out: hDAT binding assay %-inhibition (10 uM).

Structures are written as SMILES. Structures can show the parent of a compound that is named as a salt. Where two headings read alike, the source gives them in different places.

Sequence of human norepinephrine transporter (P23975 whole entry): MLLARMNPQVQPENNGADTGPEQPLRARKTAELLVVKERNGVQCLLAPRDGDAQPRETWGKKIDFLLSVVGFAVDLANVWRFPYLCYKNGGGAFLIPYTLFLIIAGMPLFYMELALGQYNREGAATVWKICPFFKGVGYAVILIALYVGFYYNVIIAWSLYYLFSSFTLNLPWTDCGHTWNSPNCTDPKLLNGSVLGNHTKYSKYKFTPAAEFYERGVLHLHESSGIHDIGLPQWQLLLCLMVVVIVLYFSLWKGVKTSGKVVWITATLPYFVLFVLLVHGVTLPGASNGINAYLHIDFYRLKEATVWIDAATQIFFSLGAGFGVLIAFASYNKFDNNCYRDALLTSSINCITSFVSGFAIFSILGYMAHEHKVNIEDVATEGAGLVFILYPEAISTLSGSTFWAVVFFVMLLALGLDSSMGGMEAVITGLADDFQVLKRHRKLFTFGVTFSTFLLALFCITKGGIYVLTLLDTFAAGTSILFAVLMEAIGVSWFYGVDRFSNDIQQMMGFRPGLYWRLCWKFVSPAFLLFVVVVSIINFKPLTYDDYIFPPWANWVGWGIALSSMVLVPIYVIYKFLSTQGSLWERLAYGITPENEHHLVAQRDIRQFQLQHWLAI
Sequence of human serotonin transporter (P31645 whole entry): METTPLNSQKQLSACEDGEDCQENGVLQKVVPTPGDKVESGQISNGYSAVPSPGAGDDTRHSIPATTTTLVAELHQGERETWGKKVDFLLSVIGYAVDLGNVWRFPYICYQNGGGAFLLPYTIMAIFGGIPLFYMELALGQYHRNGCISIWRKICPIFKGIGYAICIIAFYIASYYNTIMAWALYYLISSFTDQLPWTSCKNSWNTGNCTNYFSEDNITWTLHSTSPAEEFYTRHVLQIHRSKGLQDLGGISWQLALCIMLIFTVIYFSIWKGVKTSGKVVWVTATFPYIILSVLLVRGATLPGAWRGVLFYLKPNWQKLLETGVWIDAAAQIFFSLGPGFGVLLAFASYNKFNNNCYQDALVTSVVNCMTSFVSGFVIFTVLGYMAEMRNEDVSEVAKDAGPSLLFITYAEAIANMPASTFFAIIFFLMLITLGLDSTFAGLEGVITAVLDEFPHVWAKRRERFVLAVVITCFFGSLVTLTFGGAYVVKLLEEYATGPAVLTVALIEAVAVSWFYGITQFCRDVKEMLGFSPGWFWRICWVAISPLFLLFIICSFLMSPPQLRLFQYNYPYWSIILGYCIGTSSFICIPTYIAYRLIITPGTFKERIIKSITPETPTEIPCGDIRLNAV
Sequence of human dopamine transporter (Q01959 whole entry): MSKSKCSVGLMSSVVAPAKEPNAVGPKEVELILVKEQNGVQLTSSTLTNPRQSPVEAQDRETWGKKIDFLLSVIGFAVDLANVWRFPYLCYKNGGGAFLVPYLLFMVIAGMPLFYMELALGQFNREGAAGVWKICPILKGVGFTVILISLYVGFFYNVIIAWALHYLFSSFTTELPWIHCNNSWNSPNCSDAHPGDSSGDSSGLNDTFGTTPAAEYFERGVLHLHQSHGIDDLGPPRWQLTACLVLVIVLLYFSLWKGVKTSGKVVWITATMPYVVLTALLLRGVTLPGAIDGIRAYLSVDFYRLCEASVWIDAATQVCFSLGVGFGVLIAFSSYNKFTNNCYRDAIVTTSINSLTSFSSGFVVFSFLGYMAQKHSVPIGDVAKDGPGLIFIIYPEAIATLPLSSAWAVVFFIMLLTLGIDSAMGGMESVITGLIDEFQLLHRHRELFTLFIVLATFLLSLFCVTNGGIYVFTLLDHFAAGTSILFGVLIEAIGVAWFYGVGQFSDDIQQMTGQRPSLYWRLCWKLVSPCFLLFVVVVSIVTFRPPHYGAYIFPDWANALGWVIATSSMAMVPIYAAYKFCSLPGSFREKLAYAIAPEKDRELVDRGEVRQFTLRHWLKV

For the molecule `Cl.FC(F)(F)Oc1ccccc1OC(c1ccc(Cl)c(Cl)c1)C1CNC1` (centres unmarked), the melting point amounted to 225 °C.
In the case of `Cc1ccccc1OC(c1ccc2ccccc2c1)C1CNC1.Cl` (centres unmarked), the melting point is 213 °C.
The molecule `Cc1cccc(OC(c2ccc(F)c(Cl)c2)C2CNC2)c1.Cl` (centres unmarked) registered a melting point of 151 °C.
On the same count and under the same terms, the figure for `Cl.Fc1ccc(OC(c2ccc(Cl)c(Cl)c2)C2CNC2)cc1F` (centres unmarked) is 240 °C.
For `Cl.FC(F)(F)Oc1cccc(OC(c2ccc(Cl)c(Cl)c2)C2CNC2)c1` (centres unmarked), the melting point was 208 °C.
The same measure, in the same setting: in the case of `Cc1ccc(OC(c2ccc(Cl)c(F)c2)C2CNC2)cc1.Cl` (centres unmarked) it was 173 °C; in that of `Cl.Clc1ccccc1OC(c1ccc2ccccc2c1)C1CNC1` (centres unmarked), 207 °C.
The molecule `Cl.Fc1ccc(C(Oc2ccccc2Cl)C2CNC2)cc1Cl` (centres unmarked) came in with a melting point of 188 °C.
For `Cl.Fc1cccc(OC(c2ccc3ccccc3c2)C2CNC2)c1` (centres unmarked), the melting point amounted to 216 °C.
Molecule `CCOC(c1ccc(Cl)cc1)C1CNC1.Cl` (centres unmarked) [KHG26754, 3-((4-chlorophenyl)(ethoxy)methyl)azetidine hydrochloride] returned a melting point of 190 °C. In addition, in data set [1] (10 uM, membrane from HEK293 cells), the inhibition at 10 µM worked out at 95%. This molecule also gave an IC50 in data set [1] (membrane from HEK293 cells, 2 nM [3H]Imipramine) of 120 nM. Besides, the inhibition at 10 µM in data set [2] (10 uM, membrane from MDCK cells) came to 91%. The molecule also returned an IC50 in data set [2] (membrane from MDCK cells, 6 nM [3H]Nisoxetine) of 666 nM. The molecule further yielded an IC50 in data set [3] (membrane from CHO-K1 cells, 8 nM [3H]WIN35,428) of 1950 nM. The inhibition at 10 µM in data set [3] came out at 76%.
In turn, `Cl.c1ccc(C(Oc2ccc3ccccc3c2)C2CNC2)cc1` (centres unmarked) gave a melting point of 183 °C.
In turn, `Cl.Clc1cccc(OC(c2ccc3ccccc3c2)C2CNC2)c1` (centres unmarked) gave a melting point of 214 °C.
The same measure, in the same setting: the figure for `Cl.Fc1ccc(OC(c2ccc(Cl)c(Cl)c2)C2CNC2)cc1` (centres unmarked) is 210 °C.
`CCOC(c1ccc(Cl)c(Cl)c1)C1CNC1.Cl` (centres unmarked) [KHG26757, 3-((3,4-dichlorophenyl)(ethoxy)methyl)azetidine hydrochloride] yielded a melting point of 156 °C. Moreover, in data set [1], the IC50 was determined as 97.5 nM and the inhibition at 10 µM came to 83%. In addition, in data set [2], the half-maximal inhibitory concentration (IC50) is 153 nM and the inhibition at 10 µM stood at 86%. The inhibition at 10 µM in data set [3] turned out to be 58%.
The molecule `Cl.Clc1ccc(OC(c2ccc3ccccc3c2)C2CNC2)cc1Cl` (centres unmarked) had a melting point of 217 °C.
Take `Cl.Fc1cc(C(Oc2ccccc2Cl)C2CNC2)ccc1Cl` (centres unmarked): the melting point came to 220 °C.
Still for that read-out and setting: in the case of `Cl.Fc1ccc(OC(c2ccc(F)c(Cl)c2)C2CNC2)cc1F` (centres unmarked) it was 187 °C.
As to `Cl.Fc1ccccc1OC(c1ccc2ccccc2c1)C1CNC1` (centres unmarked), the melting point stood at 211 °C.
In the case of `Cc1ccccc1OC(c1ccc(F)c(F)c1)C1CNC1.Cl` (centres unmarked), the melting point was 151 °C.
On the same count and under the same terms, the figure for `Cl.Fc1ccc(C(Oc2cccc(Cl)c2)C2CNC2)cc1Cl` (centres unmarked) is 205 °C; for `Cl.Clc1ccc(OC(c2ccc3ccccc3c2)C2CNC2)cc1` (centres unmarked) it is 211 °C.
On the same count and under the same terms, in the case of `CCOC(c1ccc(Cl)c(F)c1)C1CNC1.Cl` (centres unmarked) it was 215 °C; in that of `Cl.OC(c1ccccc1)C1CNC1` (centres unmarked), 223 °C.
Same read-out and setting: the figure for `Cl.Fc1ccc(OC(c2ccc3ccccc3c2)C2CNC2)cc1` (centres unmarked) is 214 °C; for `Cc1cccc(OC(c2ccc(F)c(F)c2)C2CNC2)c1.Cl` (centres unmarked) it is 189 °C.
`Cl.Clc1ccc(C(Oc2ccccc2Cl)C2CNC2)cc1Cl` (centres unmarked) registered a melting point of 197 °C.
For the molecule `Cl.c1ccc(OC(c2ccc3ccccc3c2)C2CNC2)cc1` (centres unmarked), the melting point was determined as 218 °C.
Regarding `Cl.Fc1ccc(C(Oc2ccc(Cl)cc2)C2CNC2)cc1Cl` (centres unmarked), the melting point was determined as 218 °C.
The same measure, in the same setting: in the case of `Cc1ccc(OC(c2ccc(F)c(Cl)c2)C2CNC2)cc1.Cl` (centres unmarked) it was 183 °C; in that of `Cl.Fc1ccc(OC(c2ccc(Cl)c(F)c2)C2CNC2)cc1` (centres unmarked), 218 °C.
In the case of `Cl.Fc1ccc(OC(c2ccc(Cl)c(F)c2)C2CNC2)cc1F` (centres unmarked), the melting point was 216 °C.
Regarding `Cc1cccc(OC(c2ccc(Cl)c(F)c2)C2CNC2)c1.Cl` (centres unmarked), the melting point is 203 °C.
Same read-out and setting: in the case of `CCOC(c1ccccc1)C1CNC1.Cl` (centres unmarked) it was 205 °C; in that of `CCCOC(c1ccc2ccccc2c1)C1CNC1.Cl` (centres unmarked), 223 °C; in that of `Cl.Fc1ccc(OC(c2ccc3ccccc3c2)C2CNC2)cc1F` (centres unmarked), 212 °C.
In the case of `CCOC(c1ccc2ccccc2c1)C1CNC1.Cl` (centres unmarked), the melting point was found to be 205 °C.
Still for that read-out and setting: in the case of `Cl.Clc1ccc(OC(c2ccc(Cl)c(Cl)c2)C2CNC2)cc1` (centres unmarked) it was 201 °C; in that of `Cl.Fc1ccccc1OC(c1ccc(Cl)c(Cl)c1)C1CNC1` (centres unmarked), 224 °C.
`CCCOC(c1ccc(F)c(F)c1)C1CNC1.Cl` (centres unmarked) displayed a melting point of 116 °C.
Same read-out and setting: the figure for `Cl.Fc1cc(C(Oc2ccccc2)C2CNC2)ccc1Cl` (centres unmarked) is 201 °C; for `Cl.Fc1cc(C(OCc2ccccc2)C2CNC2)ccc1Cl` (centres unmarked) it is 191 °C.
For the molecule `Cl.FC(F)(F)Oc1ccc(OC(c2ccc3ccccc3c2)C2CNC2)cc1` (centres unmarked), the melting point is 209 °C.
Turning to `Cl.Fc1ccc(C(Oc2ccccc2F)C2CNC2)cc1Cl` (centres unmarked), the melting point turned out to be 194 °C.
In the case of `Cc1cccc(OC(c2ccc3ccccc3c2)C2CNC2)c1.Cl` (centres unmarked), the melting point was 210 °C.
Same read-out and setting: in the case of `Cl.Fc1cc(C(Oc2ccc(Cl)c(Cl)c2)C2CNC2)ccc1Cl` (centres unmarked) it was 192 °C; in that of `Cl.Fc1ccc(C(Oc2ccccc2)C2CNC2)cc1Cl` (centres unmarked), 208 °C.
On the same count and under the same terms, in the case of `Cc1ccc(OC(c2ccc3ccccc3c2)C2CNC2)cc1.Cl` (centres unmarked) it was 203 °C.
Consider `Cl.Fc1cc(C(Oc2ccc(Cl)cc2)C2CNC2)ccc1Cl` (centres unmarked), for which the melting point came out at 203 °C.
Same read-out and setting: in the case of `Cl.Fc1ccc(OC(c2ccc(F)c(Cl)c2)C2CNC2)cc1` (centres unmarked) it was 211 °C; in that of `Clc1ccc(C(Oc2ccccc2)C2CNC2)cc1Cl` (centres unmarked) (as salt: hydrochloride) [KHG26767, 3-((3,4-dichlorophenyl)(phenoxy)methyl)azetidine hydrochloride], 175 °C.
As to `Cl.Clc1ccc(OC(c2ccc(Cl)c(Cl)c2)C2CNC2)cc1Cl` (centres unmarked), the melting point is 208 °C.
On the same count and under the same terms, the figure for `CCCOC(c1ccc(Cl)c(Cl)c1)C1CNC1.Cl` (centres unmarked) is 151 °C; for `Cl.Fc1ccc(OC(c2ccc(F)c(F)c2)C2CNC2)cc1` (centres unmarked) it is 188 °C; for `Cc1ccccc1OC(c1ccc(F)c(Cl)c1)C1CNC1.Cl` (centres unmarked) it is 209 °C.
`Cl.FC(F)(F)Oc1ccccc1OC(c1ccc2ccccc2c1)C1CNC1` (centres unmarked) showed a melting point of 228 °C.
The same measure, in the same setting: the figure for `Cl.Fc1ccc(C(Oc2ccccc2F)C2CNC2)cc1F` (centres unmarked) is 187 °C.
Still for that read-out and setting: the figure for `Cl.FC(F)(F)Oc1cccc(OC(c2ccc3ccccc3c2)C2CNC2)c1` (centres unmarked) is 217 °C; for `Cl.Fc1ccc(C(Oc2ccccc2Cl)C2CNC2)cc1F` (centres unmarked) it is 174 °C.
Regarding `Cl.Clc1cccc(OC(c2ccc(Cl)c(Cl)c2)C2CNC2)c1` (centres unmarked), the melting point was 169 °C.
`Cc1ccccc1OC(c1ccc(Cl)c(F)c1)C1CNC1.Cl` (centres unmarked) gave a melting point of 205 °C.
Turning to `Cc1ccc(OC(c2ccc(F)c(F)c2)C2CNC2)cc1.Cl` (centres unmarked), the melting point was 159 °C.
Same read-out and setting: in the case of `Cl.Fc1cccc(OC(c2ccc(F)c(Cl)c2)C2CNC2)c1` (centres unmarked) it was 209 °C; in that of `Cl.Fc1cc(C(Oc2ccc(OC(F)(F)F)cc2)C2CNC2)ccc1Cl` (centres unmarked), 151 °C.
`Cl.Fc1ccc(C(Oc2cccc(Cl)c2)C2CNC2)cc1F` (centres unmarked): the melting point came out at 152 °C.
On the same count and under the same terms, the figure for `Cl.Fc1cc(C(Oc2ccccc2OC(F)(F)F)C2CNC2)ccc1Cl` (centres unmarked) is 166 °C.
Same read-out and setting: in the case of `COC(c1ccccc1)C1CNC1.Cl` (centres unmarked) it was 228 °C.
Consider `Cl.Fc1ccc(C(Oc2ccc(Cl)c(Cl)c2)C2CNC2)cc1Cl` (centres unmarked), for which the melting point was determined as 186 °C.
Same read-out and setting: the figure for `Cl.Fc1cccc(OC(c2ccc(Cl)c(F)c2)C2CNC2)c1` (centres unmarked) is 217 °C; for `Cl.Fc1ccc(C(Oc2cccc(OC(F)(F)F)c2)C2CNC2)cc1Cl` (centres unmarked) it is 157 °C; for `Cl.FC(F)(F)Oc1ccc(OC(c2ccc(Cl)c(Cl)c2)C2CNC2)cc1` (centres unmarked) it is 217 °C.
Still for that read-out and setting: in the case of `Cl.Fc1cc(C(Oc2ccccc2F)C2CNC2)ccc1Cl` (centres unmarked) it was 198 °C.
Same read-out and setting: the figure for `Cl.Fc1ccc(C(Oc2ccccc2OC(F)(F)F)C2CNC2)cc1Cl` (centres unmarked) is 157 °C; for `Cl.Fc1cc(C(Oc2cccc(Cl)c2)C2CNC2)ccc1Cl` (centres unmarked) it is 204 °C; for `Cl.Fc1cc(C(Oc2cccc(OC(F)(F)F)c2)C2CNC2)ccc1Cl` (centres unmarked) it is 145 °C.
In the case of `Cl.Fc1cccc(OC(c2ccc(Cl)c(Cl)c2)C2CNC2)c1` (centres unmarked), the melting point was 218 °C.

Usually melting point stands for the temperature, or range, at which the solid turns liquid. The inhibition is the change of the read-out against control, counted positive when it falls. For orientation: IC50 means the midpoint of a concentration-inhibition curve.
